Data reported in the NIST ThermoML archive (doi:10.1021/je301167q).

What was measured:
[1] = xn = mol fraction of the nth substance listed; settings: 101 kPa, Liquid; for speed of sound: Sing-around technique in a fixed-path interferometer
[2] = 101 kPa, Liquid; for speed of sound: Sing-around technique in a fixed-path interferometer

CCCCCCn1cc[n+](C)c1.F[B-](F)(F)F [1-hexyl-3-methylimidazolium tetrafluoroborate] + CCCCN
[1], x1 = 1
Settings | mass density [kg/m3] | speed of sound [m/s]
298.15 K | 1145.11 | 1496.7
308.15 K | 1137.71 | 1472
318.15 K | 1130.49 | 1447.7

CCCCCCCC[n+]1ccn(C)c1.F[B-](F)(F)F [1-methyl-3-octylimidazolium tetrafluoroborate]
[2]
Settings | mass density [kg/m3] | speed of sound [m/s]
298.15 K | 1097.61 | 1481.1
308.15 K | 1090.9 | 1453.9
318.15 K | 1084.17 | 1428.2

CCCCCCCC[n+]1ccn(C)c1.F[B-](F)(F)F [1-methyl-3-octylimidazolium tetrafluoroborate] + CCCCCCCCN
[1], x1 = 1
Settings | mass density [kg/m3] | speed of sound [m/s]
298.15 K | 1097.61 | 1481.1
308.15 K | 1090.9 | 1453.9
318.15 K | 1084.17 | 1428.2

CCCCCCCC[n+]1ccn(C)c1.F[B-](F)(F)F [1-methyl-3-octylimidazolium tetrafluoroborate] + CCCCN
[1], x1 = 1
Settings | mass density [kg/m3] | speed of sound [m/s]
298.15 K | 1097.61 | 1481.1
308.15 K | 1090.9 | 1453.9
318.15 K | 1084.17 | 1428.2

CCCCCCCCN [1-octanamine]
[2]
Settings | mass density [kg/m3] | speed of sound [m/s]
298.15 K | 777.45 | 1343.2
308.15 K | 769.46 | 1303.1
318.15 K | 761.47 | 1263.5

CCCCCCCCN [1-octanamine] + CCCCCCCC[n+]1ccn(C)c1.F[B-](F)(F)F
[1]
Settings | mass density, 298.15 K [kg/m3] | mass density, 308.15 K [kg/m3] | mass density, 318.15 K [kg/m3] | speed of sound, 298.15 K [m/s] | speed of sound, 308.15 K [m/s] | speed of sound, 318.15 K [m/s]
x2 = 0 | 777.45 | 769.46 | 761.47 | 1343.2 | 1303.1 | 1263.5
x2 = 0.1563 | 851.54 | 843.71 | 835.78 | 1353.1 | 1314.6 | 1276.9
x2 = 0.3025 | 910.65 | 902.92 | 895.08 | 1370.2 | 1334.4 | 1299
x2 = 0.4175 | 951.05 | 943.4 | 935.73 | 1387.6 | 1353.8 | 1320.5
x2 = 0.5225 | 983.58 | 976.2 | 968.62 | 1404.3 | 1372.4 | 1340.9
x2 = 0.6252 | 1011.86 | 1004.63 | 997.3 | 1420.9 | 1390.6 | 1360.7
x2 = 0.7202 | 1035.54 | 1028.44 | 1021.3 | 1436.5 | 1407.1 | 1378.4
x2 = 0.794 | 1052.58 | 1045.53 | 1038.51 | 1449 | 1419.9 | 1392.2
x2 = 0.7994 | 1053.88 | 1046.83 | 1039.75 | 1449.2 | 1421.1 | 1393.2
x2 = 0.8691 | 1069.21 | 1062.23 | 1055.21 | 1461.3 | 1432.7 | 1405.8
x2 = 0.9259 | 1081.47 | 1074.59 | 1067.76 | 1470.5 | 1442.2 | 1416.1

CCCCCCCCN [1-octanamine] + CCCCCCn1cc[n+](C)c1.F[B-](F)(F)F
[1]
Settings | mass density, 298.15 K [kg/m3] | mass density, 308.15 K [kg/m3] | mass density, 318.15 K [kg/m3] | speed of sound, 298.15 K [m/s] | speed of sound, 308.15 K [m/s] | speed of sound, 318.15 K [m/s]
x2 = 0 | 777.45 | 769.46 | 761.47 | 1343.2 | 1303.1 | 1263.5
x2 = 0.2986 | 914.74 | 906.98 | 899.32 | 1365.4 | 1331.6 | 1306.8
x2 = 0.398 | 954.27 | 946.51 | 938.79 | 1379.9 | 1345.6 | 1317.5
x2 = 0.4981 | 991.03 | 983.38 | 975.59 | 1396.2 | 1364.9 | 1333.8
x2 = 0.5999 | 1025.72 | 1017.96 | 1010.27 | 1416.6 | 1386.2 | 1356.4
x2 = 0.6994 | 1057.35 | 1049.51 | 1041.89 | 1437.5 | 1409.6 | 1381.5
x2 = 0.7998 | 1087.45 | 1079.76 | 1072.25 | 1460.3 | 1433.5 | 1408.2
x2 = 0.8945 | 1114.95 | 1107.34 | 1099.87 | 1479.6 | 1455.6 | 1431.7
